The test system of data set [1] is MDR resistant cells (A549). The note with it: A549, found earlier; cited from earlier work.
Data set [2] relates to Cis-platin resistant cells (NHIK 3025/DDP). The settings on record: found earlier; cited from earlier work.
The nature of data set [3]: Plasma concentration of elacytarabine, Ara-C and Ara-U in patients (FIG. 2). The data set is classed as in vivo. The note with it: average values for 61 patients. From the text: FIG. 2: Plasma concentration of elacytarabine, Ara-C and Ara-U (deamination metabolite of Ara-C), average values for 61 patients.
Data set [4] deals with acute myeloid leukemia (AML). Put plainly: Phase II study of single agent elacytarabine as second salvage therapy. The data set is classed as in vivo, patients. The procedure:
The formulation described in example 1 was administered to 61 patients in a phase II study of single agent elacytarabine as second salvage therapy for acute myeloid leukemia (AML). […] The response rate was 15%. The median overall survival was 5.3 months versus 1.5 months in the historical control. The median survival for the responders was 13.5 months. The 6 month survival rate was 44%.

A short description of data set [5]: Solubility of elacytarabine in water, phosphate buffer and soybean oil based emulsions. The data set is classed as physicochemical. An excerpt: Nevertheless, formulation of a therapeutically effective amount of the poorly soluble derivatives of formula (I) into a pharmaceutical composition suitable for parenteral administration represents a problem. For the sake of intravenous administration of the said derivatives, the composition of the excipients should be selected so that the said derivatives are solubilised. The cytarabine derivatives of formula (I) are amphiphilic and have poor solubility both in water and in oils. This limits the choice of potential excipients that can solubilise them.

Where only a bound is given, the exact number is not on record here.

A word on the solubility: it is how much of the substance goes into solution per volume. Higher therefore signals a readily soluble substance.

`CCCCCCCC/C=C/CCCCCCCC(=O)OC[C@H]1O[C@@H](n2ccc(N)nc2=O)[C@@H](O)[C@@H]1O` [elacytarabine, 5′-O-(trans-9″-octadecenoyl)-1-β-D-arabinofuranosylcytosine]: the “effect against resistant cells compared with corresponding non-resistant cell line” value in data set [1] and in data set [2] was “same effect” each time. For the same compound, the “exposure to elacytarabine compared to cytarabine (Ara-C)” value in data set [3] is reported as at least 10 fold. In addition, the tolerability entry in data set [4] (also by elderly patients) is reported as “well tolerated”. Moreover, in data set [4] (phase II AML patients), the side effects result is “predictable and manageable”. The solubility is under 1 µg/mL in data set [5] (aqueous buffer, phosphate buffer pH 7.4 at 25° C.) and under 0.1 µg/mL in data set [5] (deionised water, 25 °C, water). Also, the “dissolution in soybean oil based emulsions” value in data set [5] (earlier formulation studies) is recorded as “did not dissolve appropriately”.
